Reference: patent US20240327412A1, “FACTOR XIIA INHIBITORS” (KALVISTA PHARMACEUTICALS LIMITED, priority 2021, published 2024)

What was measured:
[1] = target: Plasmin (Homo sapiens, UniProt P00747); assay: Related protease inhibition: Plasmin (fluorogenic substrate at Km); assay type: biochemical; conditions: class symbols per Table 18
Experimental: (§1) In vitro inhibition of related proteases was determined using an IC50 assay based on standard literature methods (see e.g. Shori et al., Biochem. Pharmacol., 1992, 43, 1209; Bouckaert et al., European Journal of Medicinal Chemistry 110 (2016) 181). Human serine protease enzyme Plasma Kallikrein, KLK1, FXa, Plasmin, Thrombin and Trypsin were assayed for enzymatic activity using an appropriate fluorogenic substrate at Km concentration, FXIa at fixed substrate concentration of 100 μM and various concentrations of the test compound. Protease activity was measured by monitoring the accumulation of liberated fluorescence from the substrate over 5 min at 25° C. The linear rate of fluorescence increase per minute was expressed as percentage (%) activity. IC50 values were calculated as the concentration of inhibitor giving 50% inhibition of the uninhibited enzyme activity (100%).

[2] = target: Thrombin (Homo sapiens, UniProt P00734); assay: Related protease inhibition: Thrombin (fluorogenic substrate at Km); assay type: biochemical; conditions: class symbols per Table 18
Summary of the method: (§2)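 Enzymatic activity was followed as release of fluorescence from a fluorogenic substrate over 5 min at 25° C, with test compound at various concentrations. The linear rate per minute was converted to % activity, and IC50 was taken as the concentration giving 50% inhibition of uninhibited enzyme activity.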

[3] = target: KLK1 (Homo sapiens, UniProt P06870); assay: Related protease inhibition: KLK1 (fluorogenic substrate at Km); assay type: biochemical; conditions: class symbols per Table 18
Summary of the method: (§3)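 Read-out is the linear per-minute rise in fluorescence liberated from substrate, monitored for 5 min at 25° C and expressed as % activity. Substrate sat at Km, except for FXIa, which used 100 μM. IC50 values come from the concentration producing half-maximal inhibition.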

[4] = target: Trypsin (Homo sapiens, UniProt P07477); assay: Related protease inhibition: Trypsin (fluorogenic substrate at Km); assay type: biochemical; conditions: class symbols per Table 18
Experimental: as §1

[5] = target: FXa (Homo sapiens, UniProt P00742); assay: Related protease inhibition: FXa (fluorogenic substrate at Km); assay type: biochemical; conditions: class symbols per Table 18
Summary of the method: as §3

[6] = Pharmacokinetics after single intravenous and single oral dose in rats; assay type: in vivo; conditions: rat, plasma, male Sprague-Dawley rats, single iv (nominal 1 mg/kg) and single po (nominal 5 mg/kg) dose; for half-life: Phoenix WinNonlin; for bioavailability: oral bioavailability, 10% DMSO/10% Cremophor EL/80% SWFI
Experimental: Pharmacokinetic studies of the compounds in Table 19 were performed to assess the pharmacokinetics following a single intravenous dose and a single oral dose in male Sprague-Dawley rats. Two rats were given a single intravenous dose of 1 mL/kg of a nominal 1 mg/ml (1 mg/kg) composition of test compound in 10% DMSO/10% Cremophor EL/80% SWFI vehicle. Two rats were given a single oral dose of 5 ml/kg of a nominal 1 mg/mL (5 mg/kg) composition of test compound in 10% DMSO/10% Cremophor EL/80% SWFI vehicle.
Following intravenous dosing, blood samples were collected over a period of 12 h. Sample times were 2, 5, 15 and 30 min then 1, 2, 4, 6, and 12 h. Following oral dosing, blood samples were collected over a period of 24 h. Sample times were 5, 15 and 30 min then 1, 2, 4, 6, 8, 12 and 24 h.
Following collection, blood samples were centrifuged and the plasma fraction analysed for concentration of test compound by LCMS. Oral bioavailability and half-life calculations from these studies were obtained using Phoenix WinNonlin (v8.0) and are shown below: […]

[7] = target: T1, Plasma Kallikrein (Homo sapiens, UniProt P03952); assay: Related protease inhibition: Plasma Kallikrein (fluorogenic substrate at Km); assay type: biochemical; conditions: class symbols per Table 18, read-out: IC50 (human PKal)
T1 construct: FXIIa converts plasma prekallikrein (PK) to plasma kallikrein (PKa)
Summary of the method: as §2

[8] = target: T2, Human Factor XIIa (Homo sapiens, UniProt P00748); assay: Determination of FXIIa inhibition (fluorogenic substrate H-DPro-Phe-Arg-AFC, IC50 assay); assay type: biochemical; conditions: substrate at Km concentration, 25° C.; category scale; read-out: Human FXII IC50 (nm)
T2 construct: Proteolytic cleavage of FXII to heavy and light chains of FXIIa dramatically increases catalytic activity; purchased Enzyme Research Laboratories
T2 sequence (P00748 373-615 limits assumed): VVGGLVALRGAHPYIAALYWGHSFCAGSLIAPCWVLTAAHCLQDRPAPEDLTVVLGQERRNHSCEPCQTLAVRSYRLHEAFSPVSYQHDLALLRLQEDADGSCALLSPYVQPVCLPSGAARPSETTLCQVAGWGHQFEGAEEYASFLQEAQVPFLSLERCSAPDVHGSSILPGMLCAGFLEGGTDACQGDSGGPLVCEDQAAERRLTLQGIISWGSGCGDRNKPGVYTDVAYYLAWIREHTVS
T2 sequence (P00748 20-372 partner limits assumed): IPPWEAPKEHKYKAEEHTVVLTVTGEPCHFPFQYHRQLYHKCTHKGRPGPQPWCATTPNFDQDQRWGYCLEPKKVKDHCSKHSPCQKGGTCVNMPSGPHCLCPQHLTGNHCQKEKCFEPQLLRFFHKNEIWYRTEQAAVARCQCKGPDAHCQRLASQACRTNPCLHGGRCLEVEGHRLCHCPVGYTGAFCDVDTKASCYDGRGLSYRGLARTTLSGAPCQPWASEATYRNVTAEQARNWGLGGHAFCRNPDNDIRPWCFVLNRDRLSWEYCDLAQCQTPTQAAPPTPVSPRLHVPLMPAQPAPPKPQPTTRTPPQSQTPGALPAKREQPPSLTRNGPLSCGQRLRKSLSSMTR
Summary of the method: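 Human FXIIa incubated at 25° C. with fluorogenic H-DPro-Phe-Arg-AFC at its Km concentration plus varying compound levels. Linear fluorescence increase over 5 min taken as % activity; IC50 is concentration halving uninhibited activity.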

[9] = target: FXIa (Homo sapiens, UniProt P03951); assay: Related protease inhibition: FXIa (fixed substrate concentration of 100 μM); assay type: biochemical; conditions: class symbols per Table 18
Experimental: as §1

[10] = test system: patients with type I/II hereditary angioedema (HAE); conditions: phase 2, monthly prophylactic subcutaneous treatment; cited from earlier work

KLK1, sequence (P06870 25-262): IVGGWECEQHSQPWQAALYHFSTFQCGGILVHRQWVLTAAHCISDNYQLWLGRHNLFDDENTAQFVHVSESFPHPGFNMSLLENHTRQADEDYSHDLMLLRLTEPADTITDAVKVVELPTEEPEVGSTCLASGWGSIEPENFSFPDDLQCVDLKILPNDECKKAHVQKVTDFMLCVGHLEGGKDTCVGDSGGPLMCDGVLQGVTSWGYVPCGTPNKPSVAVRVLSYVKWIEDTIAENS
FXa, sequence (P00742 235-488 limits assumed): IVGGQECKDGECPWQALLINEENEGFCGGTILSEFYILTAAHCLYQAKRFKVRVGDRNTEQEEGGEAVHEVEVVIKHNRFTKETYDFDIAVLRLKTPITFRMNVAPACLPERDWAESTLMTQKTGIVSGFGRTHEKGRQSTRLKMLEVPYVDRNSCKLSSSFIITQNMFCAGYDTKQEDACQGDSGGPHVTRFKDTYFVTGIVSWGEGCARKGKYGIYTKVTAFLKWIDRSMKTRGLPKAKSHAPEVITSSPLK
FXa, sequence (P00742 41-179 partner limits assumed): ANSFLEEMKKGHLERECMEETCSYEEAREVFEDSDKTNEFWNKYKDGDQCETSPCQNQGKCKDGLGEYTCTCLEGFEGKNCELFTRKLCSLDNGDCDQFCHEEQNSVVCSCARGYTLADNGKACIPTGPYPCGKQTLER
T1 sequence (P03952 391-638 limits assumed): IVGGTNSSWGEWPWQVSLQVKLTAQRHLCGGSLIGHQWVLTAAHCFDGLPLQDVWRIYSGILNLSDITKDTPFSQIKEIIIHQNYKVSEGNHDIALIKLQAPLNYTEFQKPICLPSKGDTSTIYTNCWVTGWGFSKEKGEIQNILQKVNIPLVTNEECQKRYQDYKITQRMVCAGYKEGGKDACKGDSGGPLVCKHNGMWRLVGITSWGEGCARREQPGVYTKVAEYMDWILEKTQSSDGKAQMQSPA
T1 sequence (P03952 20-390 partner limits assumed): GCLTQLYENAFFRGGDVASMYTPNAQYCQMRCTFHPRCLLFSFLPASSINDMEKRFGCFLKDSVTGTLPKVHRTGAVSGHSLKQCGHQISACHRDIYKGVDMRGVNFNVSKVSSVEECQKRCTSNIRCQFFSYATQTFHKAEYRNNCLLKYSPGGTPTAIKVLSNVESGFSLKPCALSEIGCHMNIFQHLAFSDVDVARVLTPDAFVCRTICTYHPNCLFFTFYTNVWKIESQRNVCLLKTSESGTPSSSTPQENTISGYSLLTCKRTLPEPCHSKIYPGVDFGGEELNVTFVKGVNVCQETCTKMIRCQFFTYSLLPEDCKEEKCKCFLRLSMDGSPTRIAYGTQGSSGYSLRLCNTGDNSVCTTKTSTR
Plasmin, sequence (P00747 581-810 limits assumed): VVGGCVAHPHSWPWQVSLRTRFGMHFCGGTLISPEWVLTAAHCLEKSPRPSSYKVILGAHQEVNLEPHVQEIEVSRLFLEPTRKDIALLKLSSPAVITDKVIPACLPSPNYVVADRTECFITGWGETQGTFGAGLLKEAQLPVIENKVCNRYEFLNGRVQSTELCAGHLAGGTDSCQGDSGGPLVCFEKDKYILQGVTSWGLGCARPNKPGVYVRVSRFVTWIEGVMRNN
Plasmin, sequence (P00747 97-580 partner limits assumed): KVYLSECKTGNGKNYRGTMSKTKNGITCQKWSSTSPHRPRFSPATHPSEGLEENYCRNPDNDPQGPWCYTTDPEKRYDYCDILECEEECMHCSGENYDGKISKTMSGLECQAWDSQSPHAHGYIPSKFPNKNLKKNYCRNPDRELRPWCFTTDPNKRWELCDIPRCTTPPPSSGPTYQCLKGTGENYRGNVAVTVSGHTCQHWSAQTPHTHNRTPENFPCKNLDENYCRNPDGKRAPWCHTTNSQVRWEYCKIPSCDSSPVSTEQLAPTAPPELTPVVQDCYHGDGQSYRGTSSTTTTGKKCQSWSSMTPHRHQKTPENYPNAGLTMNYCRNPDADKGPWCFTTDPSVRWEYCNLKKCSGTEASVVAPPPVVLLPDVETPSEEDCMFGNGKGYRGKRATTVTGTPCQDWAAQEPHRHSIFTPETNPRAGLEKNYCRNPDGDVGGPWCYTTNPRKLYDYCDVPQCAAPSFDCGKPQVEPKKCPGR
FXIa, sequence (P03951 388-625 limits assumed): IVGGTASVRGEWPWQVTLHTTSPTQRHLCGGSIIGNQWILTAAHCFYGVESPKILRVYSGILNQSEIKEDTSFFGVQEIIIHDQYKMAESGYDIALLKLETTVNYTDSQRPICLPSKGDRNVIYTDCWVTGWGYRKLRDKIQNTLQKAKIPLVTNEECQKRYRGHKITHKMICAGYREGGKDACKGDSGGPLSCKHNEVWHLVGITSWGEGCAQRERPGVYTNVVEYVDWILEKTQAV
FXIa, sequence (P03951 19-387 partner limits assumed): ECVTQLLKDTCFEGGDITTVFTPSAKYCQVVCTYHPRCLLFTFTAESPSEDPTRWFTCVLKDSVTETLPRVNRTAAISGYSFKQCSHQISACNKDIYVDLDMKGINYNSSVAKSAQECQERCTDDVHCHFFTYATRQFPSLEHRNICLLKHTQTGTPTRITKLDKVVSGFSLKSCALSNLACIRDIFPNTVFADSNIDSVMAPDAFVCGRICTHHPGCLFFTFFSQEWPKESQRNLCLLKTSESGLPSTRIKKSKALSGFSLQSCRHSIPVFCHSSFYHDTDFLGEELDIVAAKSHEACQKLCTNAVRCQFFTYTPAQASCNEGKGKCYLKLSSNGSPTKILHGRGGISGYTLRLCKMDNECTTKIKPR

Compound	IC50 [1] [µM]	IC50 [2] [µM]	IC50 [3] [µM]	IC50 [4] [µM]	IC50 [5] [µM]	half-life [6] [h]	bioavailability [6] [%]	IC50 [7] [µM]	IC50 [8] [µM]	IC50 [9] [µM]	preventing attacks [10]	tolerability [10]
Nc1nccc2c(NCC34CC(COc5ccc6nccn6c5)(CO3)C4)cccc12 [Example 6602, 5-N-[[4-(Imidazo[1,2-a]pyridin-6-yloxymethyl)-2-oxabicyclo[2.1.1]hexan-1-yl]methyl]isoquinoline-1,5-diamine]	> 40	10 to 40	3 to 10	> 40	10 to 40	5.7	33.5	> 40	0.01 to 0.1			
Nc1nccc2c(NCC34CC(COc5ccn6ccnc6c5)(C3)C4)cccc12 [Example 1001, N5-((3-((Imidazo[1,2-a]pyridin-7-yloxy)methyl)bicyclo[1.1.1]pentan-1-yl)methyl)isoquinoline-1,5-diamine]	> 40	10 to 40	3 to 10	> 40	10 to 40	7.83	30.4	> 40	0.1 to 0.3	> 40		
Cc1cnc2ccc(OCC34COC(CNc5cccc6c(N)nccc56)(C3)C4)cn12 [Example 6624, 5-N-[[4-[(3-Methylimidazo[1,2-a]pyridin-6-yl)oxymethyl]-2-oxabicyclo[2.1.1]hexan-1-yl]methyl]isoquinoline-1,5-diamine]	> 40	> 40	1 to 3	10 to 40	1 to 3	6.64	14.8	10 to 40	0.01 to 0.1			
Nc1nccc2c(NCC34COC(COc5ccc6nccn6c5)(C3)C4)cccc12 [Example 2022, 5-N-[[1-(Imidazo[1,2-a]pyridin-6-yloxymethyl)-2-oxabicyclo[2.1.1]hexan-4-yl]methyl]isoquinoline-1,5-diamine]		> 40	3 to 10		> 40	3.13	42.6	> 40	0.1 to 0.3			
Nc1nccc2c(NCC34CC(COc5ccn6ccnc6c5)(CCO3)C4)cccc12 [Example 10901, N5-((5-((Imidazo[1,2-a]pyridin-7-yloxy)methyl)-2-oxabicyclo[3.1.1]heptan-1-yl)methyl)isoquinoline-1,5-diamine]		10 to 40	3 to 10		10 to 40	11.9	9.3	> 40	0.01 to 0.1			
Nc1nccc2c(NCC34COC(COc5ccn6ccnc6c5)(C3)C4)cccc12 [Example 2020, 5-N-[[1-(Imidazo[1,2-a]pyridin-7-yloxymethyl)-2-oxabicyclo[2.1.1]hexan-4-yl]methyl]isoquinoline-1,5-diamine]		> 40	3 to 10		> 40	10.5	19.9	> 40	0.01 to 0.1			
Garadacimab: "a monoclonal antibody inhibitory against FXIIa"											effective in preventing attacks	well tolerated
Nc1nccc2c(NCC34CC(COC5CCn6ccnc6C5)(C3)C4)cccc12 (racemic) [Example 1002, N5-((3-(((5,6,7,8-Tetrahydroimidazo[1,2-a]pyridin-7-yl)oxy)methyl)bicyclo[1.1.1]pentan-1-yl)methyl)isoquinoline-1,5-diamine]	> 40	10 to 40	3 to 10	10 to 40	10 to 40			> 40	0.1 to 0.3	> 40		
Cn1ccc(OCC23CCOC(CNc4cccc5c(N)nccc45)(C2)C3)cc1=O [Example 10906, 4-((1-(((1-aminoisoquinolin-5-yl)amino)methyl)-2-oxabicyclo[3.1.1]heptan-5-yl)methoxy)-1-methylpyridin-2(1H)-one]	> 40	> 40	10 to 40	10 to 40	> 40	2.55	40.5	> 40	0.1 to 0.3			
Cn1ccc(OCC23CN(C(=O)OCc4ccccc4)C(CNc4cccc5c(N)nccc45)(C2)C3)cc1=O [Example 12001, benzyl 1-(((1-aminoisoquinolin-5-yl)amino)methyl)-4-(((1-methyl-2-oxo-1,2-dihydropyridin-4-yl)oxy)methyl)-2-azabicyclo[2.1.1]hexane-2-carboxylate]		> 40	3 to 10		> 40	1.14	8.2	> 40	0.01 to 0.1			
